Test systems include COLO 205 colon; DU-145 prostate; HCC-2998 colon; HCT-15 colon; HL-60(TB) leukemia; HOP-92 NSCLC; MDA-MB-231 breast; NCI-H23 lung; OVCAR-5 ovarian; SF-268 CNS.
Common to all, as to assay: NCI tumour cell line growth inhibition, 48 h

Values joined by “and” are separate entries in the source; they are usually repeats but may differ in a detail not shown here. Equal entries are not always repeated.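 Five concentrations, 48 hours, 96-well plates. Abbreviation: GI50, concentration required for 50% inhibition of growth. TGI denotes the concentration required for complete inhibition of growth.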

Regarding `CN(C)CCCC1(c2ccc(F)cc2)OCc2cc(-c3csc4ccccc34)ccc21` (stereo not given), the GI50 in the test with COLO 205 colon was 1.73 µM; with DU-145 prostate, 1.72 µM; in the test with HCC-2998 colon, 1.65 µM; with HCT-15 colon it was 1.64 µM; in the test on HL-60(TB) leukemia, 1.77 µM; in the test with HOP-92 NSCLC, 1.4 µM. The GI50 with MDA-MB-231 breast was 1.34 µM; in the test with NCI-H23 lung it was 1.55 µM; in the test on OVCAR-5 ovarian it was 1.55 µM; in the test on SF-268 CNS it was 1.64 µM. Besides, the TGI with COLO 205 colon was 3.79 µM; in the test with DU-145 prostate it was 3.15 µM; in the test on HCC-2998 colon it was 3.14 µM; with HCT-15 colon it was 3.07 µM; in the test with HL-60(TB) leukemia it was 3.7 µM; in the test on HOP-92 NSCLC, 2.95 µM. Further, the TGI in the test on MDA-MB-231 breast was determined as 2.68 µM; in the test with NCI-H23 lung it was 3.02 µM; with OVCAR-5 ovarian, 2.95 µM; in the test with SF-268 CNS, 3.19 µM.
Regarding `Cc1cccc(Oc2ccc(Nc3ncnc4ccc(NC(=O)CN(C)C)cc34)cc2Cl)c1`, the GI50 was 1.71 µM in the test with COLO 205 colon; 2.14 µM in the test with DU-145 prostate; 1.6 µM with HCC-2998 colon; 1.6 µM in the test on HCT-15 colon; 2.07 µM in the test with HL-60(TB) leukemia; 1.4 µM in the test on HOP-92 NSCLC. The GI50 in the test on MDA-MB-231 breast was 1.72 µM; with NCI-H23 lung it was 2.95 µM; in the test on OVCAR-5 ovarian, 2.98 µM; in the test with SF-268 CNS it was 1.47 µM. For the same compound, the TGI in the test with COLO 205 colon was 3.48 µM; in the test on DU-145 prostate it was 10.8 µM; in the test with HCC-2998 colon it was 3.19 µM; in the test with HCT-15 colon, 3.13 µM; with HL-60(TB) leukemia, 4.72 µM; with HOP-92 NSCLC, 3.99 µM. Also, the TGI in the test with MDA-MB-231 breast turned out to be 3.57 µM; in the test with NCI-H23 lung, 11.6 µM; in the test on OVCAR-5 ovarian it was 12.9 µM; in the test with SF-268 CNS, 3.1 µM.
For `N=C(N)SCc1ccc(Cl)c2ccccc12` (tested in a mixture with another compound), the TGI was 23.9 µM and 19.9 µM in the test on COLO 205 colon; 27.7 µM and 25.9 µM in the test on DU-145 prostate; 6.66 µM and 4.89 µM in the test with HCC-2998 colon; 32.8 µM and 36.8 µM with HCT-15 colon; 12.6 µM and 17.8 µM in the test on HL-60(TB) leukemia; 32.2 µM and 24.9 µM in the test on HOP-92 NSCLC. Further, the TGI is 21.9 µM and 27.8 µM in the test on MDA-MB-231 breast; 29 µM and 29.2 µM in the test with NCI-H23 lung; 26.8 µM and 27.6 µM in the test on OVCAR-5 ovarian; 33.3 µM and 33.5 µM in the test on SF-268 CNS.

(Values after PubChem BioAssay (NCI).)
